Test results taken from US9242987B2, “Heterocyclyl pyrazolopyrimidine analogues as JAK inhibitors” (Cellzome Limited, priority 2009, dated 2016).
Structures can show the parent of a compound that is named as a salt.

Key:
[1] = target: T1, JAK2 (Homo sapiens, UniProt O60674); test: Kinobeads assay, JAK2; assay type: binding; details: mixed Molt4/Ramos cell lysate, dot blot detection
T1 construct: endogenous in cells; host or cells: Mixed Molt4/Ramos lysate (1:2)
Outline: (§1)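 Lysate from Molt4 and Ramos cells combined 1:2 at 10 mg/mL total protein met test compound and an aminopyrido-pyrimidine affinity matrix for 3 h in the cold. Captured JAK2 and JAK3, after elution, were measured by specific-antibody dot blot on an infrared system; dose-response curves yielded IC50.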

[2] = target: T2, JAK3 (Homo sapiens, UniProt P52333); test: Kinobeads assay, JAK3; assay type: binding; details: mixed Molt4/Ramos cell lysate, dot blot detection
T2 construct: endogenous in cells; host or cells: Mixed Molt4/Ramos lysate (1:2)
T2 sequence (P52333 1-1124): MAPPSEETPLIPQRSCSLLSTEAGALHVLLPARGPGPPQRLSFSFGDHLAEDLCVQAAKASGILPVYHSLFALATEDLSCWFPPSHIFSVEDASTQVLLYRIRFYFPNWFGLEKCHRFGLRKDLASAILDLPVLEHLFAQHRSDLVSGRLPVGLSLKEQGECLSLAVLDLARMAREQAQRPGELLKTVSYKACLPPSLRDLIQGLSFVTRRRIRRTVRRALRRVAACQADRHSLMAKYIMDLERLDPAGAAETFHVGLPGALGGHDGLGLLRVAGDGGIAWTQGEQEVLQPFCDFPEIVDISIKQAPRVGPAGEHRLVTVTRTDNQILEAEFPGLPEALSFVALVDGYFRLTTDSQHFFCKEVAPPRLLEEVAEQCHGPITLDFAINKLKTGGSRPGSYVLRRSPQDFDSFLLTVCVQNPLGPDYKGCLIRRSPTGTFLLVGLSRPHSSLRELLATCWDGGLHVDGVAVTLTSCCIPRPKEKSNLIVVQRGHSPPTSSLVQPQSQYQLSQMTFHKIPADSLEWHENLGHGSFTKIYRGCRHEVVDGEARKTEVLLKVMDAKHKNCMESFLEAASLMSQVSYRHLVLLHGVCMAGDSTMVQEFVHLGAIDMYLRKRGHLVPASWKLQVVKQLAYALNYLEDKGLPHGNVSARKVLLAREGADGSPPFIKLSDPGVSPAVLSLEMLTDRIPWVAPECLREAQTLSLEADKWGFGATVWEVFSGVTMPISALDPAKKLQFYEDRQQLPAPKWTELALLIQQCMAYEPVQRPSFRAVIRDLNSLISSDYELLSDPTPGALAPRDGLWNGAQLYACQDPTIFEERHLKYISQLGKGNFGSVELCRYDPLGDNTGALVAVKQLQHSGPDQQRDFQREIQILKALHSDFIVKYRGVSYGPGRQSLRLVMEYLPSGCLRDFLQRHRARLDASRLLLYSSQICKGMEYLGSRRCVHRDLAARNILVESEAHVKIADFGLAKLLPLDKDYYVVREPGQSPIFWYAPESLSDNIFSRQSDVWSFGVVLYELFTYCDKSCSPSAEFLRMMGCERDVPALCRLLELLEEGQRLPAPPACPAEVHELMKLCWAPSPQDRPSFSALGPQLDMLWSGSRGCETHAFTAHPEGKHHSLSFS
Outline: as §1

T1 sequence (O60674 whole entry): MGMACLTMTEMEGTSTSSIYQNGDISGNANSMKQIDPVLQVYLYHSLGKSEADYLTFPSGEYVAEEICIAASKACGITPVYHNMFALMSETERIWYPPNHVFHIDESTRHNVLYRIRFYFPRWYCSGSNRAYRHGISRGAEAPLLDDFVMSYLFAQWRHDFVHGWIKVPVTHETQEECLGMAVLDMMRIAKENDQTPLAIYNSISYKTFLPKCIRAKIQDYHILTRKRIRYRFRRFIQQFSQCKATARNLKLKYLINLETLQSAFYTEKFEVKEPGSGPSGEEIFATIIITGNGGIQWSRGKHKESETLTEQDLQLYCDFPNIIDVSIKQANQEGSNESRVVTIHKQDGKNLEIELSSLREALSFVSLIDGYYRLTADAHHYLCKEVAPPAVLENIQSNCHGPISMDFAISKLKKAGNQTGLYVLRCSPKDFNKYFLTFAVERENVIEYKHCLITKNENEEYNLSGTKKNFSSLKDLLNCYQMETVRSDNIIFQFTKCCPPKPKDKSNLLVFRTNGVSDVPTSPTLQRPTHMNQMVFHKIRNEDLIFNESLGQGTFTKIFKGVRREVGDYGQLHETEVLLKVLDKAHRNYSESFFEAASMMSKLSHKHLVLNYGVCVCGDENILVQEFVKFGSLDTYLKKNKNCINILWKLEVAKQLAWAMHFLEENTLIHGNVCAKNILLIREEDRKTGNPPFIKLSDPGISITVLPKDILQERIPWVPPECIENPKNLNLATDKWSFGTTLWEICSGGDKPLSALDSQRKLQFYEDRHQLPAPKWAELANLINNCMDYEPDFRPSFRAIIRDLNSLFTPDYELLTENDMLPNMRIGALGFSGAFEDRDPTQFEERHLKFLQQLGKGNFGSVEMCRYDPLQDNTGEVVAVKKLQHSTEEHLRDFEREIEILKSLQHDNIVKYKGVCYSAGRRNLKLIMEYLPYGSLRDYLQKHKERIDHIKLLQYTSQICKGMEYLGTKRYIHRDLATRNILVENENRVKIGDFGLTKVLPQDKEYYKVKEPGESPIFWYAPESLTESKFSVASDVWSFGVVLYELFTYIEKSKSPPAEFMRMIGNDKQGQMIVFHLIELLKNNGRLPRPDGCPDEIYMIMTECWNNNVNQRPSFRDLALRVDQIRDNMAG

In the case of `Cn1cc(Nc2ncc3cnn(Cc4ccccc4OCc4ccccc4)c3n2)cn1` [Example 114, 1-(2-(Benzyloxy)benzyl)-N-(1-methyl-1H-pyrazol-4-yl)-1H-pyrazolo[3,4-d]pyrimidin-6-amine], the IC50 [1] is reported as ≥ 10 µM and the IC50 [2] is reported as 0.1 to 1 µM.

With `Cc1c(F)cccc1Cn1ncc2cnc(Nc3cnn(C)c3)nc21` [Example 115, 1-(3-Fluoro-2-methylbenzyl)-N-(1-methyl-1H-pyrazol-4-yl)-1H-pyrazolo[3,4-d]pyrimidin-6-amine] the IC50 [1] was 1 to 10 µM and the IC50 [2] was < 0.1 µM.

For `Cc1ccc(F)cc1Cn1ncc2cnc(Nc3cnn(C)c3)nc21` [Example 116], the IC50 [1] was 0.1 to 1 µM and the IC50 [2] was < 0.1 µM.

For `Cc1cccc(F)c1Cn1ncc2cnc(Nc3cnn(C)c3)nc21` [Example 117, 1-(2-Fluoro-6-methylbenzyl)-N-(1-methyl-1H-pyrazol-4-yl)-1H-pyrazolo[3,4-d]pyrimidin-6-amine], the IC50 [1] was 1 to 10 µM and the IC50 [2] was < 0.1 µM.

`FC(F)Cn1cc(Nc2ncc3cnn(Cc4ccccc4)c3n2)cn1` [Example 118, 1-Benzyl-N-(1-(2,2-difluoroethyl)-1H-pyrazol-4-yl)-1H-pyrazolo[3,4-d]pyrimidin-6-amine] was tested, and the IC50 [1] was 1 to 10 µM and the IC50 [2] was < 0.1 µM.

`COc1nn(CC(F)F)cc1Nc1ncc2cnn(Cc3ccccc3)c2n1` [Example 119, 1-Benzyl-N-(1-(2,2-difluoroethyl)-3-methoxy-1H-pyrazol-4-yl)-1H-pyrazolo[3,4-d]pyrimidin-6-amine] was tested, and the IC50 [1] was ≥ 10 µM and the IC50 [2] was 0.1 to 1 µM.

With `Cc1nn(CC(F)F)cc1Nc1ncc2cnn(Cc3ccccc3)c2n1` [Example 120, 1-Benzyl-N-(1-(2,2-difluoroethyl)-3-methyl-1H-pyrazol-4-yl)-1H-pyrazolo[3,4-d]pyrimidin-6-amine] the IC50 [1] was ≥ 10 µM and the IC50 [2] was 0.1 to 1 µM.

With `NS(=O)(=O)c1ccc(-n2ncc3cnc(Nc4cnn(CCO)c4)nc32)cc1` [Example 121, 4-(6-((1-(2-Hydroxyethyl)-1H-pyrazol-4-yl)amino)-1H-pyrazolo[3,4-d]pyrimidin-1-yl)benzenesulfonamide] the IC50 [1] was 0.1 to 1 µM and the IC50 [2] was < 0.1 µM.

`Cn1cc(Nc2ncc3cnn(-c4cccc(S(N)(=O)=O)c4)c3n2)cn1` [Example 122, 3-(6-((1-Methyl-1H-pyrazol-4-yl)amino)-1H-pyrazolo[3,4-d]pyrimidin-1-yl)benzenesulfonamide] showed an IC50 [1] of 1 to 10 µM and an IC50 [2] of 0.1 to 1 µM.

In the case of `CCN(CC)CCn1cc(Nc2ncc3cnn(Cc4ccccc4F)c3n2)cn1` [Example 123, N-(1-(2-(Diethylamino)ethyl)-1H-pyrazol-4-yl)-1-(2-fluorobenzyl)-1H-pyrazolo[3,4-d]pyrimidin-6-amine], the IC50 [1] is reported as 0.1 to 1 µM and the IC50 [2] is reported as < 0.1 µM.

For `Fc1ccccc1Cn1ncc2cnc(Nc3cnn(CCN4CCOCC4)c3)nc21` [Example 124, 1-(2-Fluorobenzyl)-N-(1-(2-morpholinoethyl)-1H-pyrazol-4-yl)-1H-pyrazolo[3,4-d]pyrimidin-6-amine], the IC50 [1] was 0.1 to 1 µM and the IC50 [2] was < 0.1 µM.

In the case of `CN(C)CCCn1cc(Nc2ncc3cnn(Cc4ccccc4F)c3n2)cn1` [Example 125, N-(1-(3-(Dimethylamino)propyl)-1H-pyrazol-4-yl)-1-(2-fluorobenzyl)-1H-pyrazolo[3,4-d]pyrimidin-6-amine], the IC50 [1] is reported as 0.1 to 1 µM and the IC50 [2] is reported as < 0.1 µM.

`CC(C)S(=O)(=O)Nc1ccccc1Cn1ncc2cnc(Nc3cnn(C)c3)nc21` [Example 126, N-(2-((6-((1-Methyl-1H-pyrazol-4-yl)amino)-1H-pyrazolo[3,4-d]pyrimidin-1-yl)methyl)phenyl)propane-2-sulfonamide] was tested, and the IC50 [1] was 1 to 10 µM and the IC50 [2] was < 0.1 µM.

In the case of `NS(=O)(=O)c1ccc(-n2ncc3cnc(Nc4cnn(CC(F)F)c4)nc32)cc1` [Example 127, 4-(6-((1-(2,2-Difluoroethyl)-1H-pyrazol-4-yl)amino)-1H-pyrazolo[3,4-d]pyrimidin-1-yl)benzenesulfonamide], the IC50 [1] is reported as 1 to 10 µM and the IC50 [2] is reported as 0.1 to 1 µM.

With `Fc1ccccc1Cn1ncc2cnc(Nc3cnn(CC(F)F)c3)nc21` [Example 128, N-(1-(2,2-Difluoroethyl)-1H-pyrazol-4-yl)-1-(2-fluorobenzyl)-1H-pyrazolo[3,4-d]pyrimidin-6-amine] the IC50 [1] was 1 to 10 µM and the IC50 [2] was < 0.1 µM.

`Fc1ccc(F)c(Cn2ncc3cnc(Nc4cnn(CC(F)F)c4)nc32)c1` [Example 129, 1-(2,5-Difluorobenzyl)-N-(1-(2,2-difluoroethyl)-1H-pyrazol-4-yl)-1H-pyrazolo[3,4-d]pyrimidin-6-amine] was tested, and the IC50 [1] was 0.1 to 1 µM and the IC50 [2] was < 0.1 µM.

For `N#Cc1ccc(F)cc1Cn1ncc2cnc(Nc3cnn(CC(F)F)c3)nc21` [Example 130, 2-((6-((1-(2,2-Difluoroethyl)-1H-pyrazol-4-yl)amino)-1H-pyrazolo[3,4-d]pyrimidin-1-yl)methyl)-4-fluorobenzonitrile], the IC50 [1] was 0.1 to 1 µM and the IC50 [2] was < 0.1 µM.

With `CS(=O)(=O)Nc1ccccc1Cn1ncc2cnc(Nc3cnn(CC(F)F)c3)nc21` [Example 131, N-(2-((6-((1-(2,2-Difluoroethyl)-1H-pyrazol-4-yl)amino)-1H-pyrazolo[3,4-d]pyrimidin-1-yl)methyl)phenyl)methanesulfonamide hydrochloride] the IC50 [1] was 0.1 to 1 µM and the IC50 [2] was < 0.1 µM.

For `COCCOc1cccc(Cn2ncc3cnc(Nc4cnn(C)c4)nc32)c1` [Example 132, 1-(3-(2-Methoxyethoxy)benzyl)-N-(1-methyl-1H-pyrazol-4-yl)-1H-pyrazolo[3,4-d]pyrimidin-6-amine], the IC50 [1] was ≥ 10 µM and the IC50 [2] was < 0.1 µM.

`CNC(=O)Cn1cc(Nc2ncc3cnn(Cc4ccccc4)c3n2)cn1` [Example 133, 2-(4-((1-Benzyl-1H-pyrazolo[3,4-d]pyrimidin-6-yl)amino)-1H-pyrazol-1-yl)-N-methylacetamide] was tested, and the IC50 [1] was 1 to 10 µM and the IC50 [2] was < 0.1 µM.

For `Cn1cc(Nc2ncc3cnn(Cc4ccccc4NS(=O)(=O)CC(F)(F)F)c3n2)cn1` [Example 134], the IC50 [1] was 1 to 10 µM and the IC50 [2] was < 0.1 µM.

For `Cn1cc(Nc2ncc3cnn(-c4ccc(C(N)=O)cc4)c3n2)cn1` [Example 135, 4-(6-((1-Methyl-1H-pyrazol-4-yl)amino)-1H-pyrazolo[3,4-d]pyrimidin-1-yl)benzamide], the IC50 [1] was 1 to 10 µM and the IC50 [2] was 0.1 to 1 µM.

`CNC(=O)c1ccc(-n2ncc3cnc(Nc4cnn(C)c4)nc32)cc1` [Example 136, N-methyl-4-(6-((1-methyl-1H-pyrazol-4-yl)amino)-1H-pyrazolo[3,4-d]pyrimidin-1-yl)benzamide] showed an IC50 [1] of 1 to 10 µM and an IC50 [2] of 0.1 to 1 µM.

`Cn1cc(Nc2ncc3cnn(-c4ccc(C(=O)N5CCOCC5)cc4)c3n2)cn1` [Example 137, (4-(6-((1-Methyl-1H-pyrazol-4-yl)amino)-1H-pyrazolo[3,4-d]pyrimidin-1-yl)phenyl)(morpholino)methanone] was tested, and the IC50 [1] was 0.1 to 1 µM and the IC50 [2] was < 0.1 µM.

Molecule `Cn1cc(Nc2ncc3cnn(-c4ccc(S(N)(=O)=O)c(F)c4)c3n2)cn1` [Example 138, 2-Fluoro-4-(6-((1-methyl-1H-pyrazol-4-yl)amino)-1H-pyrazolo[3,4-d]pyrimidin-1-yl)benzenesulfonamide] has an IC50 [1] of 1 to 10 µM and an IC50 [2] of 0.1 to 1 µM.

Molecule `Cn1cc(Nc2ncc3cnn(-c4ccc(S(=O)(=O)NCCO)cc4)c3n2)cn1` [Example 139, N-(2-Hydroxyethyl)-4-(6-((1-methyl-1H-pyrazol-4-yl)amino)-1H-pyrazolo[3,4-d]pyrimidin-1-yl)benzenesulfonamide] has an IC50 [1] of 1 to 10 µM and an IC50 [2] of 0.1 to 1 µM.

For `Cn1cc(Nc2ncc3cnn(Cc4cccc(NS(C)(=O)=O)c4)c3n2)cn1` [Example 140, N-(3-((6-((1-Methyl-1H-pyrazol-4-yl)amino)-1H-pyrazolo[3,4-d]pyrimidin-1-yl)methyl)phenyl)methanesulfonamide], the IC50 [1] was 1 to 10 µM and the IC50 [2] was < 0.1 µM.

With `CC(C)S(=O)(=O)Nc1cccc(Cn2ncc3cnc(Nc4cnn(C)c4)nc32)c1` [Example 141, N-(3-((6-((1-Methyl-1H-pyrazol-4-yl)amino)-1H-pyrazolo[3,4-d]pyrimidin-1-yl)methyl)phenyl)propane-2-sulfonamide] the IC50 [1] was ≥ 10 µM and the IC50 [2] was 0.1 to 1 µM.

For `Cn1cc(Nc2ncc3cnn(Cc4c(F)cccc4NS(C)(=O)=O)c3n2)cn1` [Example 142], the IC50 [1] was 0.1 to 1 µM and the IC50 [2] was < 0.1 µM.
